This note sets out measurements from US7625948B2, “Ester compound and medicinal use thereof” (Japan Tobacco Inc., priority 2002, dated 2009).

The test system of experiment [1] is Syrian hamsters. As to the kind of experiment: Test Example 3: olive oil-loading test (inhibition of fat absorption, plasma TG). The class given is in vivo. As to conditions: Mesocricetus auratus, po; 100 mg/kg p.o.; plasma TG 4 hours after olive oil; read-out: Test Example 3 Inhibition of fat absorption after olive oil-loading in Hamster Inhibition rate (%).
The next experiment concerns HepG2 cells. As to the kind of experiment: Test Example 2: inhibition of apolipoprotein B secretion from HepG2 cells, ELISA (also used for metabolites in Test Example 8). Particulars: Homo sapiens, 24 hours, apo B in supernatant by ELISA, read-out: Test Example 2 Inhibition of apo B secretion IC50. The class given is cell-based. The method in brief:
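HepG2 cells cultured 24 h, then exposed 24 h to compounds or metabolites in medium with 0.5% DMSO. Secreted apo B in supernatant quantified by sandwich ELISA (HRP, ABTS, 405 nm) against purified human apo B standard; % inhibition vs DMSO group, IC50 derived.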
Background: In an ELISA, binding on a coated surface is turned into a signal by an enzyme label.

For experiment [2], the target named is T1, Microsomal triglyceride transfer protein (MTP) from bovine liver (Bos taurus, UniProt P55156).
T1 construct: from tissue; host or cells: bovine liver
T1 sequence (P55156 12-887): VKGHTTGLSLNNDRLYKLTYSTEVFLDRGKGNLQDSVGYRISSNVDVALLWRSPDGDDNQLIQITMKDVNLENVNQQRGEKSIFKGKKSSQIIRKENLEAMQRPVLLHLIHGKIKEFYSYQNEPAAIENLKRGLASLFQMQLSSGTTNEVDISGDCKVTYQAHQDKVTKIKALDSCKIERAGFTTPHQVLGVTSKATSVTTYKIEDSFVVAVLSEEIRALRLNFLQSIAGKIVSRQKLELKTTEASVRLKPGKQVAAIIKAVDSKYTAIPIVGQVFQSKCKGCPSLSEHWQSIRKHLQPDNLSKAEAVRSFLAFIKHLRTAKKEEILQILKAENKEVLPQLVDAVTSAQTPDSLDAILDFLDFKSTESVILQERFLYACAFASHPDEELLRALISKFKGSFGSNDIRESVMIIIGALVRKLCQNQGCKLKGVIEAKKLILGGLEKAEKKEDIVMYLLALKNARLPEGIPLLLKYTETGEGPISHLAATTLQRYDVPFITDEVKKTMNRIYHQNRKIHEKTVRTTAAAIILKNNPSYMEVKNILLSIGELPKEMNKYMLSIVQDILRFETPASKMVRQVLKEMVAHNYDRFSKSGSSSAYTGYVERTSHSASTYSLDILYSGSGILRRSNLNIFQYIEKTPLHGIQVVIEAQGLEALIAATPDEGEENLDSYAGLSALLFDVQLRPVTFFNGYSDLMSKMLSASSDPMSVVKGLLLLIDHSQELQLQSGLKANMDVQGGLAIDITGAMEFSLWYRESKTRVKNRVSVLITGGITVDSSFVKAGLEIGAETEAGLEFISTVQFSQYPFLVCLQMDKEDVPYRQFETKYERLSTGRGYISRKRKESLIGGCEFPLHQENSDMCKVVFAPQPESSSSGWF
T1 sequence (P05307 21-510 partner): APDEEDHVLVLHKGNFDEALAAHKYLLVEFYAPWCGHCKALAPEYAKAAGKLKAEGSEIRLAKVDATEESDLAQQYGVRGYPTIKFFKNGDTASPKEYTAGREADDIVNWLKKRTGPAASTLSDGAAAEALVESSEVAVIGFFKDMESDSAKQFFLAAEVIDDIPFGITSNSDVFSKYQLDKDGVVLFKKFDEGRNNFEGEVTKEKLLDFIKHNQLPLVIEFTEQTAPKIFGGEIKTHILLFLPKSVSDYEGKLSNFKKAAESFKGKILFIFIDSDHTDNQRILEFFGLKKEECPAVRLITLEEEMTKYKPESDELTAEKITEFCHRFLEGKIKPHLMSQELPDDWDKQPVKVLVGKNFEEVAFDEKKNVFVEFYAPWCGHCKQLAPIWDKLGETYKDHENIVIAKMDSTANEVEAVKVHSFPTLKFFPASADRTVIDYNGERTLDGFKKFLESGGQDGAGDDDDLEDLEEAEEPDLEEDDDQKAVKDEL
As to the kind of experiment: Test Example 1: inhibition of interliposomal triglyceride (TG) transfer activity by MTP (also used for metabolites in Test Example 8). The class given is biochemical. Particulars: MTP-mediated 14C-triolein transfer between liposomes, 37° C., one hour; read-out: Test Example 1 MTP inhibition IC50. The method in brief:
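Partially purified bovine liver MTP (DEAE chromatography) incubated 1 h at 37 °C, pH 7.4, with ^14C-triolein-labelled donor SUVs and unlabelled acceptor SUVs plus compound in DMSO. Acceptor radioactivity, blank-corrected, gave % inhibition versus DMSO; IC50 derived. Metabolites tested likewise.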

Experiment [3] deals with Syrian hamsters. As to the kind of experiment: Test Example 3: olive oil-loading test (inhibition of fat absorption, plasma TG). Format: in vivo. Particulars: Mesocricetus auratus, po, plasma TG 4 hours after olive oil, read-out: Test Example 3 Inhibition of fat absorption after olive oil-loading in Hamster Inhibition rate (%); for inhibition in vivo at 3 mg/kg: 3 mg/kg p.o. As to the method:
Syrian hamsters (9-11 weeks of age) under non-fasted conditions were used in the test. Blood was collected previously from orbital venous plexus, and a sample was suspended in 0.5% methyl cellulose (vehicle) and the suspension was forced to be administered orally to the hamsters at a dose of 0.3, 1, 3 or 10 mg/2 mL/kg. Only vehicle in the same volume was administered to the control group. Olive oil (2 mL/kg) was forced to be administered orally 30 minutes after the administration of the sample, and blood was collected from orbital venous plexus 4 hours later. Plasma was recovered from the blood, and the amount of triglyceride (TG) in the plasma was determined by automatic analyzer (Hitachi Co.). The data was expressed in terms of ΔTG(mg/dL)=the value at 4th hr minus the value before administration. Inhibition rate (%) was calculated from the data obtained on the basis of the following equation.
Inhibition rate (%)=100×(1 minus ΔTG of sample group/ΔTG of control group).

For `CCOC(=O)C(COC(=O)Cc1ccc(NC(=O)c2ccccc2-c2ccc(C(F)(F)F)cc2)c(C)c1)(C(=O)OCC)c1ccccc1` [Example 1-3, 2-(2-{3-Methyl-4-[(4′-trifluoromethylbiphenyl-2-carbonyl)amino]phenyl}acetoxymethyl)-2-phenylmalonic acid diethyl ester], the inhibition in vivo at 100 mg/kg in the experiment on Syrian hamsters [1] is 65%. The results for the IC50 (with HepG2 cells; in experiment [2]) were 5.75 nM and 4.7 nM, respectively.
On the same counts, the results for `CCNC(=O)C(COC(=O)Cc1ccc(NC(=O)c2ccccc2-c2ccc(C(F)(F)F)cc2)c(C)c1)(C(=O)NCC)c1ccccc1` [Example 1-45] are 71%, 0.46 nM and 0.39 nM.
On the same counts, the results for `CC(C)CNC(=O)C(COC(=O)Cc1ccc(NC(=O)c2ccccc2-c2ccc(C(F)(F)F)cc2)cc1)(C(=O)NCC(C)C)c1ccccc1` [Example 1-66] are 52%, 9.3 nM and 16 nM.
The corresponding values for `CCCNC(=O)C(COC(=O)Cc1ccc(NC(=O)c2ccccc2-c2ccc(C(F)(F)F)cc2)c(C)c1)(C(=O)NCCC)c1ccccc1` [Example 1-72] are 54%, 2.7 nM and 0.44 nM.
Take `CCNC(=O)C(COC(=O)Cc1ccc(NC(=O)c2ccccc2-c2ccc(C(F)(F)F)cc2)c(C(=O)N(CC)CC)c1)(C(=O)NCC)c1ccccc1` [Example 2-8]: in the experiment on Syrian hamsters [3], the inhibition in vivo at 3 mg/kg is 89%. The IC50 with HepG2 cells was found to be 0.99 nM.
On the same counts, the results for `CCOC(=O)C(COC(=O)Cc1ccc(NC(=O)c2ccccc2-c2ccc(C(F)(F)F)cc2)c(C(=O)N(C)CC)c1)(C(=O)OCC)c1ccccc1` [Example 2-13] are 70% and 0.74 nM.
As to `CCNC(=O)C(COC(=O)Cc1ccc(NC(=O)c2ccccc2-c2ccc(C(F)(F)F)cc2)c(C(=O)N(C)CC)c1)(C(=O)NCC)c1ccccc1` [Example 2-14], the inhibition in vivo at 3 mg/kg in the experiment on Syrian hamsters [3] turned out to be 80%. For the same compound, the IC50 in the experiment with HepG2 cells was determined as 1.2 nM.
The corresponding values for `CCNC(=O)C(CCOC(=O)Cc1ccc(NC(=O)c2ccccc2-c2ccc(C(F)(F)F)cc2)c(C(=O)N(C)CC)c1)(C(=O)NCC)c1ccccc1` [Example 2-15] are 81% and 0.53 nM.
On the same counts, the results for `CCCN(C)C(=O)c1cc(CC(=O)OCC(C(=O)OCC)(C(=O)OCC)c2ccccc2)ccc1NC(=O)c1ccccc1-c1ccc(C(F)(F)F)cc1` [Example 2-18] are 58% and 0.69 nM.
The corresponding values for `CCC(=O)N[C@H](COC(=O)Cc1ccc(NC(=O)c2ccccc2-c2ccc(C(F)(F)F)cc2)c(C(=O)N(C)C)c1)c1ccccc1` [Example 2-25] are 55% and 6.3 nM.
Take `CCOC(=O)C(COC(=O)Cc1ccc(NC(=O)c2ccc(C)cc2-c2ccc(C(F)(F)F)cc2)c(C(=O)N(C)C)c1)(C(=O)OCC)c1ccccc1` [Example 2-48]: in the experiment with Syrian hamsters [3], the inhibition in vivo at 3 mg/kg is 87%. The IC50 in the experiment on HepG2 cells was 0.36 nM.
With `CCCNC(=O)C(COC(=O)Cc1ccc(NC(=O)c2ccccc2-c2ccc(C(F)(F)F)cc2)c(OC)c1)(C(=O)NCCC)c1ccccc1` [Example 3-5], the inhibition in vivo at 10 mg/kg in the experiment on Syrian hamsters [3] (10 mg/kg p.o.) was determined as 80%. For the same compound, in the experiment on HepG2 cells, the IC50 was 2.2 nM.
Turning to `CCNC(=O)C(CCOC(=O)Cc1ccc(NC(=O)c2ccccc2-c2ccc(C(F)(F)F)cc2)c(OC(C)C)c1)(C(=O)NCC)c1ccccc1` [Example 3-11], the inhibition in vivo at 3 mg/kg in the experiment on Syrian hamsters [3] is 75%. For the same compound, in the experiment with HepG2 cells, the IC50 was 0.36 nM.
For `CCNC(=O)C(CCOC(=O)Cc1cccc(NC(=O)c2ccccc2-c2ccc(C(F)(F)F)cc2)c1C)(C(=O)NCC)c1ccccc1` [Example 5-9], in the experiment on Syrian hamsters [1], the inhibition in vivo at 100 mg/kg came to 78%. In addition, the values for the IC50 (in the experiment on HepG2 cells; in experiment [2]) were 28 nM and 4 nM, respectively.
On to `CCCNC(=O)C(CCOC(=O)Cc1cccc(NC(=O)c2ccccc2-c2ccc(C(F)(F)F)cc2)c1C)(C(=O)NCCC)c1ccccc1` [Example 5-11], for which the inhibition in vivo at 100 mg/kg in the experiment with Syrian hamsters [1] was determined as 64%. The concentration for half-maximal inhibition (IC50) in the experiment on HepG2 cells stood at 5.1 nM; in experiment [2], 1.3 nM.
With `CCOC(=O)C(COC(=O)CN1CCC(NC(=O)c2ccccc2-c2ccc(C(F)(F)F)cc2)CC1)(C(=O)OCC)c1ccccc1` [Example 8, 2-Phenyl-2-(2-{4-[(4′-trifluoromethylbiphenyl-2-carbonyl)amino]piperidin-1-yl}acetoxymethyl)malonic acid diethyl ester], the results for the IC50 (in the experiment with HepG2 cells; in experiment [2]) were 595 nM and 33 nM, respectively.
The corresponding values for `CCOC(=O)C(COC(=O)Cn1ccc2c(NC(=O)c3ccccc3-c3ccc(C(F)(F)F)cc3)cccc21)(C(=O)OCC)c1ccccc1` [Example 9, 2-Phenyl-2-(2-{4-[(4′-trifluoromethylbiphenyl-2-carbonyl)amino]indol-1-yl}acetoxymethyl)malonic acid diethyl ester] are 260 nM and 11 nM.
As to `CCOC(=O)C(COC(=O)Cn1c(C)nc2c(NC(=O)c3ccccc3-c3ccc(C(F)(F)F)cc3)cccc21)(C(=O)OCC)c1ccccc1` [Example 9-2, 2-(2-{2-methyl-4-[(4′-trifluoromethylbiphenyl-2-carbonyl}amino]benzimidazol-1-yl}acetoxymethyl)-2-phenyl-malonic acid diethyl ester], the IC50 with HepG2 cells came to 450 nM; in experiment [2], 4.2 nM.
With `CCNC(=O)C(COC(=O)Cc1ccc(NC(=O)c2ccccc2-c2ccc(C(F)(F)F)cc2)c(C(=O)OCC)c1)(C(=O)NCC)c1ccccc1` [Example 9-10], the inhibition in vivo at 3 mg/kg in the experiment with Syrian hamsters [3] came to 54%. The IC50 in the experiment with HepG2 cells was 2.3 nM.
Turning to `CCOC(=O)C(COC(=O)Cn1cnc2c(NC(=O)c3ccccc3-c3ccc(C(F)(F)F)cc3)cccc21)(C(=O)OCC)c1ccccc1` [Example 9-11], the IC50 in the experiment on HepG2 cells is 210 nM; in experiment [2], 20 nM.
On to `CCNC(=O)C(COC(=O)Cc1ccc(NC(=O)c2ccccc2-c2ccc(C(F)(F)F)cc2)c(C(=O)OC)c1)(C(=O)NCC)c1ccccc1` [Example 9-13], for which the inhibition in vivo at 3 mg/kg in the experiment with Syrian hamsters [3] worked out at 70%. The IC50 with HepG2 cells was found to be 0.53 nM.

The term IC50 denotes the concentration that inhibits the measured activity by half.
